Patent US20050282755A1, “Compositions having antimicrobial activity and uses thereof” (priority 2004, published 2005)
Values after ≈ are worked out from the molar mass of the structure shown. Read-outs that look alike come from different tables or passages of the source. Non-standard residues stand in square brackets, D forms with d. Residues, ends and D or L forms follow the SMILES beside them. *: point of attachment. Lauroyl = CCCCCCCCCCCC(=O)*

What was measured:
[1] = test system: Pseudomonas aeruginosa ATCC 27853; conditions: ATCC 27853, pH 7.4
[2] = test system: Propionibacterium acnes ATCC 6919; assay: MIC, agar dilution method NCCLS M11-A6, Brucella agar, anaerobic (Table 9, superscript c); type: cell-based; conditions: letter c: agar dilution NCCLS M11-A6, Brucella agar, anaerobic
In short: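 Agar dilution per NCCLS M11-A6 on Brucella agar; final inoculum 1.5×10^8 CFU/milliliter applied to plates, incubated 48-96 hours at 37° C. under anaerobic (GasPak) conditions. MIC = lowest peptide concentration with no colony growth.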

[3] = test system: Jurkat cells; type: cell-based; conditions: 16 h
Procedure: Toxicity of peptide compositions for mammalian cells was determined by using a metabolic viability assay. For this assay 4×10^5 HeLa cells were seeded per well into a microwell plate (50 microliters volume). Jurkat cells also were utilized in separate experiments. The cells were incubated for 16 hours at 37° C. under mammalian cell culture conditions. Two fold serial dilutions for each peptide were prepared and added to the cells (final volume 100 microliters) and incubated for 16 hours at 37° C. For each dilution series control wells containing cells without peptide were included. The metabolic activity and viability of the cells were determined by using a commercially available assay (CellTiter96 assay, Promega Corp.). According to manufacturer's protocol 20 microliters of CellTiter reagent was added to each well and incubated at 37° C. for 1-4 hours. The CellTiter assay is a commercial version of the MTT assay, which measures the conversion of a tetrazolium […] into a colored formazan salt in metabolically active cells. The formation of the formazan product can be measured at 470 nm and is generally accepted as a measure of cellular viability. The cells were incubated at 37° C. and monitored for color development. The conversion of CellTiter reagent was measured at 470 nm using a Versamax plate reader (Molecular Devices). The viability of peptide treated cells is expressed as IC50 (i.e., concentration that leads to a 50% reduction of viability relative to the untreated control). Table 7A reports IC50 values for HeLa cells cultured in OptiMEM or 10% FBS when contacted with peptide compositions from Table 3, and Table 7B reports IC50 values for HeLa cells or Jurkat cells contacted with peptide compositions from Table 3.

[4] = test system: HeLa cells; conditions: 16 h
[5] = test system: Staphylococcus aureus ATCC 29213; assay: MIC, NCCLS M7-A6 broth microdilution, cation-adjusted Mueller Hinton broth (Table 9, no superscript); type: cell-based; conditions: ATCC 29213
In short: (§1)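 MIC, read as the lowest peptide concentration without visible growth compared with peptide-free wells, after overnight incubation at 37° C. Wells held cation-adjusted Mueller Hinton broth and a final inoculum of 5×10^5 to 1×10^6 CFU/mL from log-phase culture.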

[6] = test system: Candida albicans ATCC 18804; assay: MIC in yeasts, NCCLS M27-A2 broth microdilution, RPMI 1640 (Table 9, letter e); type: cell-based; conditions: ATCC 18804
In short: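 Broth microdilution per NCCLS M27-A2 in RPMI 1640 with glutamine and phenol red, final inoculum 0.5×10^3–2.5×10^3 CFU/milliliter. Incubated 24 to 48 hours at 37° C; MIC is the lowest peptide concentration with no visible growth.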

[7] = test system: Salmonella dublin (Lane); assay: MIC, NCCLS M7-A6 broth microdilution (Table 9, no superscript); type: cell-based
In short: as §1

[8] = test system: Escherichia coli ATCC 25922; assay: as above; type: cell-based; conditions: ATCC 25922
In short: as §1

[9] = test system: Staphylococcus epidermidis ATCC 12228; assay: as above; type: cell-based; conditions: ATCC 12228
In short: as §1

[10] = test system: Propionibacterium acnes ATCC 6919; type: cell-based
In short: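 MIC by non-standard broth microdilution in reinforced Clostridial broth, log-phase P. acnes inoculum at 5×10^5 to 1×10^6 CFU/mL. Plates were held anaerobically 48–72 h at 37° C; MIC was the lowest peptide concentration with no visible turbidity relative to the no-peptide control.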

[11] = test system: Pseudomonas aeruginosa ATCC 27853; assay: MIC, NCCLS M7-A6 broth microdilution (Table 9, no superscript); type: cell-based; conditions: ATCC 27853
In short: as §1

[12] = test system: IL-12 release; assay: Anti-inflammation assay: IL-12 release in PBMCs stimulated by P. acnes (IL-12p70 ELISA); type: cell-based, human; conditions: PBMCs stimulated by P. acnes, over night; read-out: IC50 value, reduction of IL-12 release
Procedure: An assay that detected reductions in IL-12 released in whole human blood cells (PBMCs) was utilized to detect reductions in inflammation elicited by peptide compositions described herein. The assay utilized the following materials and reagents: whole human blood cells; P. acnes; peptides 55, 67 and 93 from Table 3; IL-12p70 ELISA kit (eBiosciences); RPMI 1640 growth medium; PBS; and a 96-well microtiter plate. PBMCs were prepared from whole human blood cells according to standard procedures and cells were resuspended in RPMI 1640 and 10% FCS. Cells were seeded at 250,000 cells per well in a 96-well microtiter plate and incubated for 90 minutes. […] Controls included untreated cells, P. acnes alone or a peptide alone. The cells were incubated over night at 37° C., and cell supernatants were collected and stored at −80° C. for use in an IL-12 ELISA assay (eBiosciences). A 1:1 dilution of supernatant was utilized to perform the IL-12 ELISA following the protocol provided by the manufacturer.

Row | SMILES | MIC P. aeruginosa [1] [b ug/mL] | MIC P. acnes [2] [c ug/mL] | IC50 [3] [µM] | IC50 [4] [µM] | MIC S. aureus [5] [µg/mL] | MIC C. albicans [6] [e ug/mL] | MIC S. dublin [7] [µg/mL] | MIC E. coli [8] [µg/mL] | MIC S. epidermidis [9] [µg/mL] | MIC P. acnes [10] [µg·days/mL] | MIC P. aeruginosa [11] [µg/mL] | IC50 [12] [µM]
1 | CCCCCCCCCCCC(=O)N[C@H](CCCNC(=N)N)C(=O)N[C@H](CO)C(=O)N[C@H](CCCNC(=N)N)C(=O)N[C@H](Cc1c[nH]c2ccccc12)C(=O)N[C@H](CCCNC(=N)N)C(=O)N[C@H](CC(=O)O)C(=O)N[C@@H](C(=O)N[C@H](C)C(=O)N[C@H](CCCNC(=N)N)C(=O)N[C@H](CC(N)=O)C(=O)N[C@H](Cc1ccccc1)C(=O)N[C@H](CCSC)C(=O)N[C@H](CCCNC(=N)N)C(N)=O)C(C)C [Peptide 90, Lauryl-rsrwrdvarnfmr-NH2] (Lauroyl-[dR][dS][dR][dW][dR][dD][dV][dA][dR][dN][dF][dM][dR]-NH2) | 3 | 8 | 5 to 15 | 5 to 15 | 4 (≈ 2.07 µM) | 16 | 4 (≈ 2.07 µM) | 4 (≈ 2.07 µM) | 4 (≈ 2.07 µM) | – | – | –
2 | CSCC[C@@H](NC(=O)[C@@H](Cc1ccccc1)NC(=O)[C@@H](CC(N)=O)NC(=O)[C@@H](CCCNC(=N)N)NC(=O)[C@@H](CO)NC(=O)[C@@H](Cc1c[nH]c2ccccc12)NC(=O)[C@@H](CC(=O)O)NC(=O)[C@@H](CCCNC(=N)N)NC(=O)[C@@H](Cc1c[nH]c2ccccc12)NC(=O)[C@@H](CCCNC(=N)N)NC(=O)[C@@H](CO)NC(=O)[C@@H](CCCNC(=N)N)NC(=O)CNC(=O)[C@H](NC(=O)[C@@H](CCCNC(=N)N)NC(=O)[C@@H](CO)NC(=O)[C@H](NC(=O)[C@@H](CCCNC(=N)N)NC(=O)[C@H](NC(C)=O)[C@H](C)O)C(C)C)[C@H](C)O)C(=O)N[C@H](CCCNC(=N)N)C(N)=O [Peptide 33, Ac-trvsrtgrsrwrdwsrnfmr-NH2] (Ac-[dT][dR][dV][dS][dR][dT]G[dR][dS][dR][dW][dR][dD][dW][dS][dR][dN][dF][dM][dR]-NH2) | – | – | 67.5 | > 100 | >64 | 16 | 64 (≈ 24.1 µM) | >64 | 32 (≈ 12.1 µM) | 12.5 | >64 | –
3 | CSCC[C@H](NC(=O)[C@H](Cc1ccccc1)NC(=O)[C@H](CC(N)=O)NC(=O)[C@H](CCCNC(=N)N)NC(=O)[C@H](CO)NC(=O)[C@H](Cc1c[nH]c2ccccc12)NC(=O)[C@H](CC(=O)O)NC(=O)[C@H](CCCNC(=N)N)NC(=O)[C@H](Cc1c[nH]c2ccccc12)NC(=O)[C@H](CCCNC(=N)N)NC(=O)[C@H](CO)NC(=O)[C@H](CCCNC(=N)N)NC(=O)CNC(=O)[C@@H](NC(=O)[C@H](CCCNC(=N)N)NC(=O)[C@H](CO)NC(=O)[C@@H](NC(=O)[C@H](CCCNC(=N)N)NC(=O)[C@@H](NC(C)=O)[C@@H](C)O)C(C)C)[C@@H](C)O)C(=O)N[C@@H](CCCNC(=N)N)C(=O)N[C@@H](C)C(=O)N[C@@H](C)C(N)=O [Peptide 1] | – | – | > 100 | > 100 | – | – | – | – | – | – | – | –
4 | CCCCCCCCCCCC(=O)N[C@@H](C(=O)N[C@H](CCCNC(=N)N)C(=O)N[C@@H](C(=O)N[C@H](CO)C(=O)N[C@H](CCCNC(=N)N)C(=O)N[C@@H](C(=O)NCC(=O)N[C@H](CCCNC(=N)N)C(=O)N[C@H](CO)C(=O)N[C@H](CCCNC(=N)N)C(=O)N[C@H](Cc1c[nH]c2ccccc12)C(=O)N[C@H](CCCNC(=N)N)C(=O)N[C@H](CC(=O)O)C(=O)N[C@H](Cc1c[nH]c2ccccc12)C(=O)N[C@H](CO)C(=O)N[C@H](CCCNC(=N)N)C(=O)N[C@H](CC(N)=O)C(=O)N[C@H](Cc1ccccc1)C(=O)N[C@H](CCSC)C(=O)N[C@H](CCCNC(=N)N)C(N)=O)[C@H](C)O)C(C)C)[C@H](C)O [Peptide 76, Lauryl-trvsrtgrsrwrdwsrnfmr-NH2] (Lauroyl-[dT][dR][dV][dS][dR][dT]G[dR][dS][dR][dW][dR][dD][dW][dS][dR][dN][dF][dM][dR]-NH2) | – | 64 | 3.3 | 5.49 | 2 (≈ 0.716 µM) | 16 | 16 (≈ 5.73 µM) | 4 (≈ 1.43 µM) | 1 (≈ 0.358 µM) | – | 32 (≈ 11.5 µM) | 1.12
